Measurements from ChEMBL document CHEMBL5126595, “Identification and anti-tumor evaluation of 3-acyl-indol-based 2,4-diarylaminopyrimidine analogues as potent ALK inhibitors capable of overcoming drug-resistant mutants” (Eur J Med Chem, 2022).
Calls of active or inactive are those of the source. The rule behind the calls is not given here.

Key:
[1] = target: ALK tyrosine kinase receptor (Homo sapiens, UniProt Q9UM73, G1202R); experiment: Inhibition of N-terminal GST-tagged human ceritinib-resistant ALK G1202R mutant (1058 to 1620 residues) cytoplasmic domain expressed in baculovirus infected Sf21 cells incubated for 1 hrs in the presence of ATP by mobility shift assay
Chain of ALK tyrosine kinase receptor (Homo sapiens, UniProt Q9UM73, G1202R) (Q9UM73 19-1620 G1202R limits assumed): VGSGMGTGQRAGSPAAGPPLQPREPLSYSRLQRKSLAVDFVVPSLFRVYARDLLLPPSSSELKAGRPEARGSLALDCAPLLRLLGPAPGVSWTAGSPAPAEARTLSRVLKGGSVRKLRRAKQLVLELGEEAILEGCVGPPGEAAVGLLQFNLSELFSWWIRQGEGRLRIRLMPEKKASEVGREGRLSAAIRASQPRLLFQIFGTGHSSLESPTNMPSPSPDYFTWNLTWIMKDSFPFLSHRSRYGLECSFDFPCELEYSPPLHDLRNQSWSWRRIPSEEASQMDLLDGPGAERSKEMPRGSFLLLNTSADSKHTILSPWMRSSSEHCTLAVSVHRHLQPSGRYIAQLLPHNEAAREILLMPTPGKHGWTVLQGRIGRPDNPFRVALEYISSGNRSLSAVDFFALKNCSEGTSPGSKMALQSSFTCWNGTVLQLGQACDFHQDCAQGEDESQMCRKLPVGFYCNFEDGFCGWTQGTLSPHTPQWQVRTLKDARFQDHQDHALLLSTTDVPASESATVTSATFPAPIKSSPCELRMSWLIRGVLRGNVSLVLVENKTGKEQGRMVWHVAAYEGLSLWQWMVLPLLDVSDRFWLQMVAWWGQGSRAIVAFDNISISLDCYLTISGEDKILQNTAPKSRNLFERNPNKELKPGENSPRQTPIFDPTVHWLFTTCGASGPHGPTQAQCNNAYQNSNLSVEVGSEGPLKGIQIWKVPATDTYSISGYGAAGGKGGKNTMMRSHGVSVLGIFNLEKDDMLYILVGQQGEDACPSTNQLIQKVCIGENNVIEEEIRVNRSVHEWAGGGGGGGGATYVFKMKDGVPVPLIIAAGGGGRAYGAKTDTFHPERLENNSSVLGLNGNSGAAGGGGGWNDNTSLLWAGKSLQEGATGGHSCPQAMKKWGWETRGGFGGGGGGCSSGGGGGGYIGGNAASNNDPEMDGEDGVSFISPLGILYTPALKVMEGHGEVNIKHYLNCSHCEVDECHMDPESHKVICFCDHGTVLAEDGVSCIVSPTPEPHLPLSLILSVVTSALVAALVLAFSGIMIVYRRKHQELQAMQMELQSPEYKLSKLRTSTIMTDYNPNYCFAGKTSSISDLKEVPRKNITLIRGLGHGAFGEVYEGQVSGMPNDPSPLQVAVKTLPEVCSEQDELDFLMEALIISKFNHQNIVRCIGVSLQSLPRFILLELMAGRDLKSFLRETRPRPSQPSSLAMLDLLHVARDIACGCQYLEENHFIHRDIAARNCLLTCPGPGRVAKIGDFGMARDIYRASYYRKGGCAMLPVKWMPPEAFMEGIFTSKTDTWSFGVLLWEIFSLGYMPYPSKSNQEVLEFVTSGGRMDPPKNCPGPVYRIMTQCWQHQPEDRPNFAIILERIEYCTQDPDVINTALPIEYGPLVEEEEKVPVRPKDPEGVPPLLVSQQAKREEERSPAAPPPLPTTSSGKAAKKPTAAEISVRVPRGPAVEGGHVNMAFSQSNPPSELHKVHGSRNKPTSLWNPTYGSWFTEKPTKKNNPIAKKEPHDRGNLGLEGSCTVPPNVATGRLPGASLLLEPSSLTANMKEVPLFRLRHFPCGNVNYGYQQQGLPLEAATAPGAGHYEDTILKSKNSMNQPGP

[2] = Antiproliferative activity against human HEK293T cells assessed as inhibition of cell growth incubated for 72 hrs by MTT assay; type: toxicity, cell-based, HEK-293T
NCI-H2228 [3] = experiment: Induction of apoptosis in human NCI-H2228 cells assessed as late apoptotic cells at 50 nM incubated for 48 hrs by AnnexinV-FITC/propidium iodide staining based flow cytometry analysis (reference value: 4.72 %); type: functional
NCI-H2228 [4] = experiment: Antiproliferative activity against EML4-ALK positive human NCI-H2228 cells assessed as inhibition of cell growth incubated for 72 hrs by MTT assay; type: functional, cell-based; settings: NCI-H2228, 72 h
[5] = Half-life in Sprague-Dawley rat at 2 mg/kg, iv by LC-MS/MS analysis; type: ADME, organism-based; settings: in vivo
NCI-H2228 [6] = experiment: Antitumor activity against human NCI-H2228 cells xenografted in BALB/c nude mouse assessed as tumor growth inhibition at 50 mg/kg, IG administered every 2 days for 7 times relative to control; type: functional; settings: NCI-H2228, po, 336 h, time 14 day, read-out: TGI
NCI-H2228 [7] = experiment: Induction of apoptosis in human NCI-H2228 cells assessed as nuclei fragmentation by measuring brilliant blue fluorescence at 25 to 100 nM incubated for 48 hrs by Hoechst 33342 staining based fluorescence microscopic analysis; type: functional, cell-based; settings: dose 25-100 nM
NCI-H2228 [8] = experiment: Induction of cell cycle arrest in human NCI-H2228 cells assessed as increase in G1 phase cells at 25 nM incubated for 48 hrs by PI/RNase staining based flow cytometry analysis (reference value: 49.72 %); type: functional
MDA-MB-231 = experiment: cells; settings: Homo sapiens, MDA-MB-231, 72 h
[9] = target: ALK tyrosine kinase receptor (Homo sapiens, UniProt Q9UM73); experiment: Inhibition of ALK downstream signalling in human NCI-H2228 cells assessed as reduction in phosphorylated ERK level measured after 24 hrs by Western blot analysis; type: cell-based; settings: dose 25-100 nM, DDE = dose-dependent effect
Chain of ALK tyrosine kinase receptor (Homo sapiens, UniProt Q9UM73) (Q9UM73 19-1620 limits assumed): as the sequence (Q9UM73 19-1620 G1202R limits assumed) above, with R1184G counted along it

[10] = Antiproliferative activity […] EML4-ALK-L1196M cells assessed as inhibition of cell growth incubated for 72 hrs by MTT assay; type: functional, cell-based
HT-29 = experiment: cells; settings: Homo sapiens, HT-29, 72 h
Description: Antiproliferative activity against human HT-29 cells assessed as inhibition of cell growth incubated for 72 hrs by MTT assay

MCF7 = experiment: cells; settings: Homo sapiens, MCF7, 72 h
Description: Antiproliferative activity against human MCF7 cells assessed as inhibition of cell growth incubated for 72 hrs by MTT assay

**Q.** With `CNC(=O)c1ccccc1Nc1nc(Nc2ccc3c(C(=O)N(C)C)c(C)[nH]c3c2)ncc1Cl` as the molecule, how does the IC50 [1] read?
**A.** 2.9 nM

**Q.** And the IC50 at 72 h [2]?
**A.** > 10000 nM

**Q.** What about the Activity (NCI-H2228 [3]) of the same molecule?
**A.** 16.5%

**Q.** What about the IC50 (NCI-H2228 [4]) of the same molecule?
**A.** 37 nM

**Q.** What about the half-life [5] of the same molecule?
**A.** 2.5 h

**Q.** What about the inhibition in vivo at 50 mg/kg (NCI-H2228 [6]) of the same molecule?
**A.** 93.5%

**Q.** What about the Activity (NCI-H2228 [7]) of the same molecule?
**A.** Active

**Q.** And the Activity (NCI-H2228 [8])?
**A.** 53.03%

**Q.** What about the IC50 (MDA-MB-231) of the same molecule?
**A.** 1880 nM

**Q.** And the inhibition [9]?
**A.** Dde

**Q.** What about the IC50 [10] of the same molecule?
**A.** 21 nM

**Q.** What about the IC50 (HT-29) of the same molecule?
**A.** 2010 nM

**Q.** And the IC50 (MCF7)?
**A.** 2160 nM
